The assay addresses T1, human TLR7 (Homo sapiens, UniProt Q9NYK1).
T1 construct: expressed in transfected cells; host or cells: HEK293 cell line stably expressing the pNiFty2-SEAP reporter plasmid; TLR7 in pUNO vector, blasticidin selection
T1 sequence (Q9NYK1 27-1049): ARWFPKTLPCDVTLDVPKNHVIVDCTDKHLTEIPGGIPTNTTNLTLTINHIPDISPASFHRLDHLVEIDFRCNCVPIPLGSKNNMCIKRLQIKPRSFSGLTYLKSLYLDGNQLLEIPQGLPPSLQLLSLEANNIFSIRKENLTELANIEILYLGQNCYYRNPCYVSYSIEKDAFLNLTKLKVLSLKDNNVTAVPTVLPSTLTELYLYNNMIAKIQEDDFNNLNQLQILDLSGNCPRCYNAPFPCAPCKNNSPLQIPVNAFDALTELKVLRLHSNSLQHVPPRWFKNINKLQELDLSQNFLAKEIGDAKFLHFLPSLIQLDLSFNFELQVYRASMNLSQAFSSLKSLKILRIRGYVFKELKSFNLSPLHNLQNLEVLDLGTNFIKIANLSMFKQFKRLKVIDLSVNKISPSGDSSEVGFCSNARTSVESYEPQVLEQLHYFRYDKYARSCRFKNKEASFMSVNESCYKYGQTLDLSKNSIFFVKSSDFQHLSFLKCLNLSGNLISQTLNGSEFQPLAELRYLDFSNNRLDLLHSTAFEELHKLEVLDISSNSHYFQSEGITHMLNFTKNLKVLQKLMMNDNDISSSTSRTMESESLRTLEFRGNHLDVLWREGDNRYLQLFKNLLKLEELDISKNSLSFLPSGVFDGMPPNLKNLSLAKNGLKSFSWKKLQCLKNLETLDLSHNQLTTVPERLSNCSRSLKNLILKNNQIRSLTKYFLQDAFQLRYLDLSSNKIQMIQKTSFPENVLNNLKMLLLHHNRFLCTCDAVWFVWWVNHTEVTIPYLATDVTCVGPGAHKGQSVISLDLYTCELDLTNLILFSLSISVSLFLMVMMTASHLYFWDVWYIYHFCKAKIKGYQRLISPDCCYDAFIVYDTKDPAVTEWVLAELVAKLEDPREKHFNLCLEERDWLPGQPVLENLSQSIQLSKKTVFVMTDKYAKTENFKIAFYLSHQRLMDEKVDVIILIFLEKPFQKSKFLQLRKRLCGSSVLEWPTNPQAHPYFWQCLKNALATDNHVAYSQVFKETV
The assay is described as follows: Human TLR7 assay (SEAP reporter in HEK293 cells). In kind it is cell-based. To be noted: SEAP induction in HEK293 cells expressing human TLR7, overnight incubation at 37° C., 0.1% DMSO.
The EC50 is the concentration that produces a half-maximal response. On to `CCCCc1nc2c(N)nc3ccccc3c2n1CCCN(Cc1cccc(CC(=O)OC)c1)C(=O)CN1CCCCC1` [Example 49, Methyl 2-(3-((N-(3-(4-amino-2-butyl-1H-imidazo[4,5-c]quinolin-1-yl)propyl)-2-(piperidin-1-yl)acetamido)methyl)phenyl)acetate], for which it took 79.4 nM to reach a half-maximal effect (EC50).

`CCCCc1nc2c(N)nc3ccccc3c2n1CCCN(Cc1cccc(CC(=O)OC)c1)C(=O)CN1CCC(O)CC1` [Example 50, Methyl 2-(3-((N-(3-(4-amino-2-butyl-1H-imidazo[4,5-c]quinolin-1-yl)propyl)-2-(4-hydroxypiperidin-1-yl)acetamido)methyl)phenyl)acetate] showed an EC50 of 501 nM. Compound `CCCCc1nc2c(N)nc3ccccc3c2n1CCCN(Cc1cccc(CC(=O)OC)c1)C(=O)CN1CCC(OC)CC1` [Example 51, Methyl 2-(3-((N-(3-(4-amino-2-butyl-1H-imidazo[4,5-c]quinolin-1-yl)propyl)-2-(4-methoxypiperidin-1-yl)acetamido)methyl)phenyl)acetate] gave an EC50 of 200 nM.

For the compound `CCCCc1nc2c(N)nc3ccccc3c2n1CCCN(Cc1cccc(CC(=O)OC)c1)C(=O)CN1CCC(C(=O)N(C)C)CC1` [Example 52, Methyl 2-(3-((N-(3-(4-amino-2-butyl-1H-imidazo[4,5-c]quinolin-1-yl)propyl)-2-(4-(dimethylcarbamoyl)piperidin-1-yl)acetamido)methyl)phenyl)acetate], the EC50 is 631 nM. For `CCCCc1nc2c(N)nc3ccccc3c2n1CCCN(Cc1cccc(CC(=O)OC)c1)C(=O)CN1CCOCC1` [Example 53, Methyl 2-(3-((N-(3-(4-amino-2-butyl-1H-imidazo[4,5-c]quinolin-1-yl)propyl)-2-morpholinoacetamido)methyl)phenyl)acetate] the value was 794 nM; for `CCCCc1nc2c(N)nc3ccccc3c2n1CCCN(Cc1cccc(CC(=O)OC)c1)C(=O)CN1C[C@@H](C)O[C@@H](C)C1` [Example 54, Methyl 2-(3-((N-(3-(4-amino-2-butyl-1H-imidazo[4,5-c]quinolin-1-yl)propyl)-2-((2S,6R)-2,6-dimethylmorpholino)acetamido)methyl)phenyl)acetate], 1000 nM. Then `CCCCc1nc2c(N)nc3ccccc3c2n1CCCN(Cc1cccc(CC(=O)OC)c1)C(=O)CN1CCN(C)CC1` [Example 55, Methyl 2-(3-((N-(3-(4-amino-2-butyl-1H-imidazo[4,5-c]quinolin-1-yl)propyl)-2-(4-methylpiperazin-1-yl)acetamido)methyl)phenyl)acetate], with 79.4 nM; and `CCCCc1nc2c(N)nc3ccccc3c2n1CCCN(Cc1cccc(CC(=O)OC)c1)C(=O)CN1CCN(CCO)CC1` [Example 56, Methyl 2-(3-((N-(3-(4-amino-2-butyl-1H-imidazo[4,5-c]quinolin-1-yl)propyl)-2-(4-(2-hydroxyethyl)piperazin-1-yl)acetamido)methyl)phenyl)acetate], with 501 nM; and `CCCCc1nc2c(N)nc3ccccc3c2n1CCCN(Cc1cccc(CC(=O)OC)c1)C(=O)CN1CCN(CCOC)CC1` [Example 57, Methyl 2-(3-((N-(3-(4-amino-2-butyl-1H-imidazo[4,5-c]quinolin-1-yl)propyl)-2-(4-(2-methoxyethyl)piperazin-1-yl)acetamido)methyl)phenyl)acetate], with 50.1 nM. `CCCCc1nc2c(N)nc3ccccc3c2n1CCCN(Cc1cccc(CC(=O)OC)c1)C(=O)CN1CCN(C(C)=O)CC1` [Example 58, Methyl 2-(3-((2-(4-acetylpiperazin-1-yl)-N-(3-(4-amino-2-butyl-1H-imidazo[4,5-c]quinolin-1-yl)propyl)acetamido)methyl)phenyl)acetate]: the EC50 was 1260 nM. With `CCCCc1nc2c(N)nc3ccccc3c2n1CCCN(Cc1cccc(CC(=O)OC)c1)C(=O)CN1CCN(S(C)(=O)=O)CC1` [Example 59, Methyl 2-(3-((N-(3-(4-amino-2-butyl-1H-imidazo[4,5-c]quinolin-1-yl)propyl)-2-(4-(methylsulfonyl)piperazin-1-yl)acetamido)methyl)phenyl)acetate], the EC50 is 794 nM. Then `CCCCc1nc2c(N)nc3ccccc3c2n1CCCN(Cc1cccc(CC(=O)OC)c1)C(=O)CN1CCCCCC1` [Example 60, Methyl 2-(3-((N-(3-(4-amino-2-butyl-1H-imidazo[4,5-c]quinolin-1-yl)propyl)-2-(azepan-1-yl)acetamido)methyl)phenyl)acetate], with 79.4 nM; and `CCCCc1nc2c(N)nc3ccccc3c2n1CCCN(Cc1cccc(CC(=O)OC)c1)C(=O)CN1CCCOCC1` [Example 61, Methyl 2-(3-((N-(3-(4-amino-2-butyl-1H-imidazo[4,5-c]quinolin-1-yl)propyl)-2-(1,4-oxazepan-4-yl)acetamido)methyl)phenyl)acetate], with 398 nM. Then `CCCCc1nc2c(N)nc3ccccc3c2n1CCCN(Cc1cccc(CC(=O)OC)c1)C(=O)CN1CCCN(C)CC1` [Example 62, Methyl 2-(3-((N-(3-(4-amino-2-butyl-1H-imidazo[4,5-c]quinolin-1-yl)propyl)-2-(4-methyl-1,4-diazepan-1-yl)acetamido)methyl)phenyl)acetate], with 251 nM; and `CCCCc1nc2c(N)nc3ccccc3c2n1CCCN(Cc1cccc(CC(=O)OC)c1)C(=O)CN1CCCN(C(C)=O)CC1` [Example 63, Methyl 2-(3-((2-(4-acetyl-1,4-diazepan-1-yl)-N-(3-(4-amino-2-butyl-1H-imidazo[4,5-c]quinolin-1-yl)propyl)acetamido)methyl)phenyl)acetate], with 501 nM; and `CCCCc1nc2c(N)nc3ccccc3c2n1CCCN(Cc1cccc(CC(=O)OC)c1)C(=O)CN1CCCN(C(=O)NCC)CC1` [Example 64, Methyl 2-(3-((N-(3-(4-amino-2-butyl-1H-imidazo[4,5-c]quinolin-1-yl)propyl)-2-(4-(ethylcarbamoyl)-1,4-diazepan-1-yl)acetamido)methyl)phenyl)acetate], with 1260 nM. `CCCCc1nc2c(N)nc3ccccc3c2n1CCCN(Cc1cccc(CC(=O)OC)c1)C(=O)CN1CCCN(S(C)(=O)=O)CC1` [Example 65, Methyl 2-(3-((N-(3-(4-amino-2-butyl-1H-imidazo[4,5-c]quinolin-1-yl)propyl)-2-(4-(methylsulfonyl)-1,4-diazepan-1-yl)acetamido)methyl)phenyl)acetate] showed an EC50 of 631 nM.

In the case of `CCCCc1nc2c(N)nc3ccccc3c2n1CCCN(Cc1ccc(CC(=O)OC)cc1)C(=O)CN1CCN(CCOC)CC1` [Example 66, Methyl 2-(4-((N-(3-(4-amino-2-butyl-1H-imidazo[4,5-c]quinolin-1-yl)propyl)-2-(4-(2-methoxyethyl)piperazin-1-yl)acetamido)methyl)phenyl)acetate], the EC50 is 158 nM. On to `CCCCc1nc2c(N)nc3ccccc3c2n1CCCN(Cc1ccc(CC(=O)OC)cc1)C(=O)CN1CCCN(C(C)=O)CC1` [Example 67, Methyl 2-(4-((2-(4-acetyl-1,4-diazepan-1-yl)-N-(3-(4-amino-2-butyl-1H-imidazo[4,5-c]quinolin-1-yl)propyl)acetamido)methyl)phenyl)acetate], for which the EC50 is 501 nM.

Values taken from patent US8436178B2, “Imidazoquinolines with immuno-modulating properties” (AstraZeneca AB, priority 2007, dated 2013).
